System: C. acnes
Assay: Antibacterial activity: inhibition diameter of growth of C. acnes
Format: cell-based, Cutibacterium acnes
Details: for Inhibition diameter (cm): C. acnes
Description: In addition, the antibacterial activity (C. acnes) of these three products was compared according to the method described later in the present application. The inhibition diameter is proportional to the antibacterial efficacy of the product tested.
The results concerning the antibacterial effect of the active ingredient according to the invention compared to those of punicalagin, the main compound of the polyphenols present in the fruit of the pomegranate, are presented in Table 6.

O=C1O[C@H]2[C@@H]3OC(=O)c4cc(O)c(O)c(O)c4-c4c(O)c(O)c5oc(=O)c6c(c(O)c(O)c7oc(=O)c4c5c76)-c4c(cc(O)c(O)c4O)C(=O)OC[C@H]3OC(O)[C@@H]2OC(=O)c2cc(O)c(O)c(O)c2-c2c1cc(O)c(O)c2O (mixture of isomers) [Punicalagin]
antibacterial activity on growth of C. acnes (in words): has an antibacterial effect on the growth of C. acnes | Inhibition diameter (cm) (Deposit 15 μl): 1.1 ± 0.1 cm | Inhibition diameter (cm) (Deposit 30 μl): 1.4 ± 0.1 cm

Source: patent US12453696B2, “Active principle comprising a particular extract of Punica granatum and uses for preventing and/or treating acne” (priority 2020, dated 2025)
